Data on 37 molecules can be found in patent publication US10988477B2 (Merck Patent GmbH, priority 2018, dated 2021).

Sequence of GCN2 kinase (Q9P2K8 whole entry): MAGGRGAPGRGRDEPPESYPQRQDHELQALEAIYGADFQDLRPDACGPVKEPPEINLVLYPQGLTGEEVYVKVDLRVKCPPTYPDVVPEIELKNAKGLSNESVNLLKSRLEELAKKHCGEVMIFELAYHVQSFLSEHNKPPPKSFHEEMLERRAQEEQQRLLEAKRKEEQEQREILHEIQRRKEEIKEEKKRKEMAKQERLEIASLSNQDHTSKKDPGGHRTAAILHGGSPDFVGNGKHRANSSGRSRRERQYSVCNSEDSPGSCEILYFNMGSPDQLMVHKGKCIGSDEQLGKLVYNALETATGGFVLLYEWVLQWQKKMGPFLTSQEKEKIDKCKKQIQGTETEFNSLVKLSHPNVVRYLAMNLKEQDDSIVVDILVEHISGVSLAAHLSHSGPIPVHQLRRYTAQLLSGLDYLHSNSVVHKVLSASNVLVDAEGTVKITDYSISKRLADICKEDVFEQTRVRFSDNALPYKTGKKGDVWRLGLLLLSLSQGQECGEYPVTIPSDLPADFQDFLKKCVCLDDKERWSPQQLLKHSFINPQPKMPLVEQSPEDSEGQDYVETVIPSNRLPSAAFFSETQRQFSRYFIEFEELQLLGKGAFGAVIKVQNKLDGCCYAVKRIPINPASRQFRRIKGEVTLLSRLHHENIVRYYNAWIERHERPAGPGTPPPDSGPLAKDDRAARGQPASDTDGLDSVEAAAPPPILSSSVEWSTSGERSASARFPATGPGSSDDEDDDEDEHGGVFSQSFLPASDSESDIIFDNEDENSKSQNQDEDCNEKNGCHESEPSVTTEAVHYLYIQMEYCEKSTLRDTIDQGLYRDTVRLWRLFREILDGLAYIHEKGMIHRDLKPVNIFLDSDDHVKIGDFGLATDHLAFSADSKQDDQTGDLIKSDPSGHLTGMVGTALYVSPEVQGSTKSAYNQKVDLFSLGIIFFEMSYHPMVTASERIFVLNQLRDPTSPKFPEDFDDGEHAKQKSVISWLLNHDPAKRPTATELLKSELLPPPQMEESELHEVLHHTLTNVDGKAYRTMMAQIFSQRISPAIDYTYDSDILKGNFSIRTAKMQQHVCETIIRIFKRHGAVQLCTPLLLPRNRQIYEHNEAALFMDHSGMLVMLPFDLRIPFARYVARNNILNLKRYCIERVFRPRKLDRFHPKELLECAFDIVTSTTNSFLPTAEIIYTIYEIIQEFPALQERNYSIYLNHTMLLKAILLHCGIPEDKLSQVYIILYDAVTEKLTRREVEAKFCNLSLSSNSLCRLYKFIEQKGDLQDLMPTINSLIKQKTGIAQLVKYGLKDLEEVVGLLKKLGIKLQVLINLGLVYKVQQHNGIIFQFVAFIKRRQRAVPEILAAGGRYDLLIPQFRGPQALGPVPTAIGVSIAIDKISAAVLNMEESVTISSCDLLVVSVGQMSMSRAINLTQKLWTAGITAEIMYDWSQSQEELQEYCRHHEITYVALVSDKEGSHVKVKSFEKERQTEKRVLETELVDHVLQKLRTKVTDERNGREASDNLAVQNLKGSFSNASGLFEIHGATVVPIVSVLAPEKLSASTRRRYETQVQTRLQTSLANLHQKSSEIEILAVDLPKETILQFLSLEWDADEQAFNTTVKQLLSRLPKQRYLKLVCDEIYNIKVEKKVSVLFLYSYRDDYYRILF

In this experiment the target is GCN2 kinase (Homo sapiens, UniProt Q9P2K8). Kind of experiment: GCN2 enzyme inhibition assay (Transcreener ADP2 fluorescence polarization). In kind it is biochemical. Conditions: Enzyme activity for compounds of Formula IV; Ki(app), 280 μM ATP, 25° C. The gist of the method:
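Human GCN2 (4 nM) preincubated 10 min with compound (0–8 μM) and 200 μM (RS)7 peptide in Tris-HCl pH 7.5, NaCl, MgCl2, DTT. Reaction started with 280 μM ATP, run 1 h at 25 °C. ADP detected by Transcreener fluorescence polarization. IC50 and Ki(app) fitted by tight-binding algorithm.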
`OCC1CCCCN(c2ccnc(-c3cnc4cnc(C(F)(F)F)cn34)n2)C1` (stereo not shown) [IV-445, (1-(2-(6-(Trifluoromethyl)imidazo[1,2-a]pyrazin-3-yl)pyrimidin-4-yl)azepan-3-yl)methanol] came in with a Ki of 100 to 1000 nM.

For `OCC1CN(c2ccnc(-c3cnc4cnc(C(F)(F)F)cn34)n2)CCO1` (stereo not shown) [IV-446, (4-(2-(6-(Trifluoromethyl)imidazo[1,2-a]pyrazin-3-yl)pyrimidin-4-yl)morpholin-2-yl)methanol], the Ki was 100 to 1000 nM.

Molecule `FC(F)(F)c1cn2c(-c3nccc(-c4cnn(C5CCOCC5)c4)n3)cnc2cn1` [IV-448, 3-(4-(1-(Tetrahydro-2H-pyran-4-yl)-1H-pyrazol-4-yl)pyrimidin-2-yl)-6-(trifluoromethyl)imidazo[1,2-a]pyrazine] showed a Ki of 100 to 1000 nM.

As for `CC1NCCN(c2ccnc(-c3cnc4cnc(C(F)F)cn34)n2)C1c1cn[nH]c1` (stereo not shown) [IV-455, 6-(Difluoromethyl)-3-(4-(3-methyl-2-(1H-pyrazol-4-yl)piperazin-1-yl)pyrimidin-2-yl)imidazo[1,2-a]pyrazine], the Ki fell in the range of 100 to 1000 nM.

As for `FC(F)(F)c1cn2c(-c3nccc(N4CCC(c5c[nH]cn5)C4)n3)cnc2cn1` (stereo not shown) [IV-456, 3-(4-(3-(1H-Imidazol-4-yl)pyrrolidin-1-yl)pyrimidin-2-yl)-6-(trifluoromethyl)imidazo[1,2-a]pyrazine], the Ki lay within 100 to 1000 nM.

As for `FC(F)(F)c1cn2c(-c3nccc(N4CCC(c5cc[nH]n5)C4)n3)cnc2cn1` (stereo not shown) [IV-457, 3-(4-(3-(1H-Pyrazol-3-yl)pyrrolidin-1-yl)pyrimidin-2-yl)-6-(trifluoromethyl)imidazo[1,2-a]pyrazine], the Ki is 100 to 1000 nM.

The molecule `CC1CC(C(N)=O)C(C)N(c2ccnc(-c3cnc4cnc(C(F)(F)F)cn34)n2)C1` (stereo not shown) [IV-464, 2,5-Dimethyl-1-(2-(6-(trifluoromethyl)imidazo[1,2-a]pyrazin-3-yl)pyrimidin-4-yl)piperidine-3-carboxamide] gave a Ki of less than 10 nM.

On to `Fc1n[nH]cc1C1CCCN(c2ccnc(-c3cnc4cnc(C(F)(F)F)cn34)n2)C1` (stereo not shown) [IV-473, 3-(4-(3-(5-Fluoro-1H-pyrazol-4-yl)piperidin-1-yl)pyrimidin-2-yl)-6-(trifluoromethyl)imidazo[1,2-a]pyrazine], for which the Ki is less than 10 nM.

`Nc1cnn(C2CCN(c3ccnc(-c4cnc5cnc(C(F)(F)F)cn45)n3)C2)c1` (stereo not shown) [IV-478, 1-(1-(2-(6-(Trifluoromethyl)imidazo[1,2-a]pyrazin-3-yl)pyrimidin-4-yl)pyrrolidin-3-yl)-1H-pyrazol-4-amine] showed a Ki of 100 to 1000 nM.

Consider `O=C(NCCO)C1CCCN(c2ccnc(-c3cnc4cnc(C(F)(F)F)cn34)n2)C1` (stereo not shown) [IV-479, N-(2-Hydroxyethyl)-1-(2-(6-(trifluoromethyl)imidazo[1,2-a]pyrazin-3-yl)pyrimidin-4-yl)piperidine-3-carboxamide], for which the Ki lay within 100 to 1000 nM.

For `CS(=O)(=O)CC1CCCN(c2ccnc(-c3cnc4cnc(C(F)(F)F)cn34)n2)C1` (stereo not shown) [IV-482, 3-(4-(3-((Methylsulfonyl)methyl)piperidin-1-yl)pyrimidin-2-yl)-6-(trifluoromethyl)imidazo[1,2-a]pyrazine], the Ki lay within 100 to 1000 nM.

As to `CS(=O)(=O)C1CCCN(c2ccnc(-c3cnc4cnc(C(F)(F)F)cn34)n2)C1` (stereo not shown) [IV-483, 3-(4-(3-(Methylsulfonyl)piperidin-1-yl)pyrimidin-2-yl)-6-(trifluoromethyl)imidazo[1,2-a]pyrazine], the Ki fell in the range of 100 to 1000 nM.

For `FC(F)(F)c1cn2c(-c3ccnc(N4CCCC(c5c[nH]cn5)C4)n3)cnc2cn1` (stereo not shown) [IV-484, 3-(2-(3-(1H-Imidazol-4-yl)piperidin-1-yl)pyrimidin-4-yl)-6-(trifluoromethyl)imidazo[1,2-a]pyrazine], the Ki was 10 to 100 nM.

For the molecule `NCCC1CN(c2ccnc(-c3cnc4cnc(C(F)(F)F)cn34)n2)CCO1` (stereo not shown) [IV-486], the Ki was in the range of 100 to 1000 nM.

`NCC1CCN(c2ccnc(-c3cnc4cnc(C(F)(F)F)cn34)n2)CC1` [IV-487]: the Ki was 100 to 1000 nM.

In turn, `NCC1CN(c2ccnc(-c3cnc4cnc(C(F)(F)F)cn34)n2)CCO1` (stereo not shown) [IV-489] registered a Ki of 100 to 1000 nM.

For the molecule `O=C1CN(C2CCCN(c3ccnc(-c4cnc5cnc(C(F)(F)F)cn45)n3)C2)CCN1` (stereo not shown) [IV-490, 4-(1-(2-(6-(Trifluoromethyl)imidazo[1,2-a]pyrazin-3-yl)pyrimidin-4-yl)piperidin-3-yl)piperazin-2-one], the Ki lay in the range of 100 to 1000 nM.

Molecule `FC(F)(F)c1cn2c(-c3nccc(N4CCCC5(CCOC5)C4)n3)cnc2cn1` (stereo not shown) [IV-496, 7-(2-(6-(Trifluoromethyl)imidazo[1,2-a]pyrazin-3-yl)pyrimidin-4-yl)-2-oxa-7-azaspiro[4.5]decane] showed a Ki of 100 to 1000 nM.

Take `FC(F)(F)c1cn2c(-c3nccc(N4CC5CCOC5C4)n3)cnc2cn1` (stereo not shown) [IV-497, 5-(2-(6-(Trifluoromethyl)imidazo[1,2-a]pyrazin-3-yl)pyrimidin-4-yl)hexahydro-2H-furo[2,3-a]pyrrole]: the Ki is 100 to 1000 nM.

In turn, `NC(C1CCCN(c2ccnc(-c3cnc4cnc(C(F)(F)F)cn34)n2)C1)C(F)(F)F` (stereo not shown) [IV-502, 2,2,2-Trifluoro-1-(1-(2-(6-(trifluoromethyl)imidazo[1,2-a]pyrazin-3-yl)pyrimidin-4-yl)piperidin-3-yl)ethan-1-amine] gave a Ki of 100 to 1000 nM.

In turn, `NC(C1CCCN(c2ccnc(-c3cnc4cnc(C(F)(F)F)cn34)n2)C1)C(F)(F)F` (stereo not shown) [IV-503, 2,2,2-Trifluoro-1-(1-(2-(6-(trifluoromethyl)imidazo[1,2-a]pyrazin-3-yl)pyrimidin-4-yl)piperidin-3-yl)ethan-1-amine] displayed a Ki of 100 to 1000 nM.

Consider `FC(F)(F)c1cn2c(-c3nccc(N4CCN5CCOCC5C4)n3)cnc2cn1` (stereo not shown) [IV-504, 8-(2-(6-(Trifluoromethyl)imidazo[1,2-a]pyrazin-3-yl)pyrimidin-4-yl)octahydropyrazino[2,1-a][1,4]oxazine], for which the Ki is 100 to 1000 nM.

In turn, `FC(F)(F)c1cn2c(-c3nccc(N4CCCC5(CCOCC5)C4)n3)cnc2cn1` [IV-505, 2-(2-(6-(Trifluoromethyl)imidazo[1,2-a]pyrazin-3-yl)pyrimidin-4-yl)-9-oxa-2-azaspiro[5.5]undecane] came in with a Ki of 100 to 1000 nM.

In turn, `CC(C)(C)C1OCN2CCN(c3ccnc(-c4cnc5cnc(C(F)(F)F)cn45)n3)CC12` (stereo not shown) [IV-506, 1-(tert-Butyl)-7-(2-(6-(trifluoromethyl)imidazo[1,2-a]pyrazin-3-yl)pyrimidin-4-yl)hexahydro-3H-oxazolo[3,4-a]pyrazine] had a Ki of 100 to 1000 nM.

`FC(F)(F)c1cn2c(-c3nccc(N4CCC(C5CCOCC5)C4)n3)cnc2cn1` (stereo not shown) [IV-507, 3-(4-(3-(Tetrahydro-2H-pyran-4-yl)pyrrolidin-1-yl)pyrimidin-2-yl)-6-(trifluoromethyl)imidazo[1,2-a]pyrazine] came in with a Ki of 100 to 1000 nM.

The molecule `FC(F)(F)c1cn2c(-c3nccc(N4CCC(C5COC5)C4)n3)cnc2cn1` (stereo not shown) [IV-508, 3-(4-(3-(Oxetan-3-yl)pyrrolidin-1-yl)pyrimidin-2-yl)-6-(trifluoromethyl)imidazo[1,2-a]pyrazine] returned a Ki of 100 to 1000 nM.

`COCC1CCCCN(c2ccnc(-c3cnc4cnc(C(F)(F)F)cn34)n2)C1` (stereo not shown) [IV-509, 3-(4-(3-(Methoxymethyl)azepan-1-yl)pyrimidin-2-yl)-6-(trifluoromethyl)imidazo[1,2-a]pyrazine] registered a Ki of 100 to 1000 nM.

`FC(F)(F)c1cn2c(-c3nccc(N4CCC(CN5CCOCC5)CC4)n3)cnc2cn1` [IV-510, 4-((1-(2-(6-(Trifluoromethyl)imidazo[1,2-a]pyrazin-3-yl)pyrimidin-4-yl)piperidin-4-yl)methyl)morpholine]: the Ki was in the range of 100 to 1000 nM.

`FC(F)(F)c1cn2c(-c3nccc(N4CCC5(CC4)COC5)n3)cnc2cn1` [IV-511, 7-(2-(6-(Trifluoromethyl)imidazo[1,2-a]pyrazin-3-yl)pyrimidin-4-yl)-2-oxa-7-azaspiro[3.5]nonane] came in with a Ki of 100 to 1000 nM.

Molecule `COCC1CCN(c2ccnc(-c3cnc4cnc(C(F)(F)F)cn34)n2)CC1` [IV-512, 3-(4-(4-(Methoxymethyl)piperidin-1-yl)pyrimidin-2-yl)-6-(trifluoromethyl)imidazo[1,2-a]pyrazine] registered a Ki of 100 to 1000 nM.

As for `N#CC1CCN(c2ccnc(-c3cnc4cnc(C(F)(F)F)cn34)n2)CC1` [IV-513, 1-(2-(6-(Trifluoromethyl)imidazo[1,2-a]pyrazin-3-yl)pyrimidin-4-yl)piperidine-4-carbonitrile], the Ki was 100 to 1000 nM.

In turn, `N#CCC1CCCN(c2ccnc(-c3cnc4cnc(C(F)(F)F)cn34)n2)C1` (stereo not shown) [IV-514, 2-(1-(2-(6-(Trifluoromethyl)imidazo[1,2-a]pyrazin-3-yl)pyrimidin-4-yl)piperidin-3-yl)acetonitrile] came in with a Ki of 100 to 1000 nM.

As for `O=C1NC[C@@H]2CCN(c3ccnc(-c4cnc5cnc(C(F)(F)F)cn45)n3)C[C@H]12` [IV-515, (3aR,7aR)-5-(2-(6-(Trifluoromethyl)imidazo[1,2-a]pyrazin-3-yl)pyrimidin-4-yl)octahydro-3H-pyrrolo[3,4-a]pyridin-3-one], the Ki was 100 to 1000 nM.

In the case of `N#CC1CCCN(c2ccnc(-c3cnc4cnc(C(F)(F)F)cn34)n2)C1` (stereo not shown) [IV-516, 1-(2-(6-(Trifluoromethyl)imidazo[1,2-a]pyrazin-3-yl)pyrimidin-4-yl)piperidine-3-carbonitrile], the Ki is 100 to 1000 nM.

Turning to `CC1CCN(c2ccnc(-c3cnc4cnc(C(F)(F)F)cn34)n2)CC1` [IV-517, 3-(4-(4-Methylpiperidin-1-yl)pyrimidin-2-yl)-6-(trifluoromethyl)imidazo[1,2-a]pyrazine], the Ki was in the range of 100 to 1000 nM.

In turn, `CC1CCCCN1c1ccnc(-c2cnc3cnc(C(F)(F)F)cn23)n1` (stereo not shown) [IV-518, 3-(4-(2-Methylpiperidin-1-yl)pyrimidin-2-yl)-6-(trifluoromethyl)imidazo[1,2-a]pyrazine] yielded a Ki of 10 to 100 nM.

Molecule `CC1CCCN(c2ccnc(-c3cnc4cnc(C(F)(F)F)cn34)n2)C1C` (stereo not shown) [IV-519, 3-(4-(2,3-Dimethylpiperidin-1-yl)pyrimidin-2-yl)-6-(trifluoromethyl)imidazo[1,2-a]pyrazine] gave a Ki of 10 to 100 nM.
